Structures can show the parent of a compound that is named as a salt.
Tests used:
[1] = molecular target: T1, type H3 mouse histamine receptors (Mus musculus, UniProt P58406); assay: Affinity for mouse H3 receptors (iodoproxyfan displacement, transfected CHO cells); format: binding; settings: mouse H3 receptors transfected into CHO cells, iodoproxyfan radioligand, 24 h at room temperature
T1 construct: expressed in transfected cells; host or cells: CHO cells
Description: The purpose is to measure the affinity of compounds of the present invention for type H3 mouse histamine receptors transfected into CHO cells. The compounds are incubated at different concentrations in the presence of transfected CHO cells, iodoproxyfan as a radiolabelled ligand which is specific for H3 receptors, and scintillant beads for 24 h at room temperature. At the end of the incubation, the displacement of the specific binding of the ligand by the compounds under test is measured, and the affinity constants of those compounds for mouse H3 receptors are determined

[2] = molecular target: T2, type H3 central histamine receptors (Mus musculus, UniProt P58406); assay: Cerebral levels of Nτ-methylhistamine in the NMRI mouse (ex vivo); settings: 3 mg/kg PO, one hour after treatment, versus carrier controls
T2 construct: from tissue; host or cells: brain of living NMRI mice (oral dosing)
Description: The purpose of this study, which was carried out in accordance with the method of Taylor et al. (Biochem. Pharm., 1992, 44, 1261-1267), is to evaluate the ex vivo activity of the compounds of the present invention as antagonists of type H3 central histamine receptors. […] An increase in the cerebral concentrations of N^τ-methylhistamine indicates an increase in to the turn-over of histamine by blockage of the type H3 central histamine receptors. NMRI mice (18-20 g) are treated with compounds of the present invention or with their carrier (20 ml/kg) by the oral route. One hour after the pharmacological treatment, the animals are sacrificed; the brains are removed, frozen in liquid nitrogen, weighed and homogenised in 0.1N HClO4 at 4° C. The homogenised products are centrifuged (15000 g, 17 mins., 4° C.). The supernatants are recovered and divided into aliquots. The aliquots are frozen in liquid nitrogen and stored at −80° C. until they are analysed. Determination of the cerebral levels of N^τ-methylhistamine is carried out by capillary electrophoresis. The tissue levels of N^τ-methylhistamine are expressed in μg/g of fresh brain. The comparison of the cerebral levels of N^τ-methylhistamine between animals treated with the carrier (controls) and animals treated with compounds of the present invention is carried out by single-factor variance analysis followed, if necessary, by a complementary analysis (Dunnett's test).

T2 sequence (P58406 whole entry): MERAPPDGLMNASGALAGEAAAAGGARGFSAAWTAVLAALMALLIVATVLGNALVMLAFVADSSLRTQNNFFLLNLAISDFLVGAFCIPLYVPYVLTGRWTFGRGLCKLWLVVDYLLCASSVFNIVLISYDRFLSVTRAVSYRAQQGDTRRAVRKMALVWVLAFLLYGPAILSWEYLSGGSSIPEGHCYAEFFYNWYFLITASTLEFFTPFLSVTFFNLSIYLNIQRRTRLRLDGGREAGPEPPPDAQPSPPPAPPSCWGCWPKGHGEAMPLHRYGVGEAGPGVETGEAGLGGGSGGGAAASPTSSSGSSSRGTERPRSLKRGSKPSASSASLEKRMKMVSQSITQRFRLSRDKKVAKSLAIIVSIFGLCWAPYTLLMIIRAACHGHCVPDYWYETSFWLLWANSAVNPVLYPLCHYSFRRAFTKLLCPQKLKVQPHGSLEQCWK
T1 sequence (P58406 whole entry): as above

Compound | Ki [1] | increase of endogenous cerebral concentrations of Nτ-methylhistamine [2]
NC(=O)c1ccc(OCCCN2CC[C@H]3C[C@H]32)cc1 (racemic) [Example 1, 4-[3-(cis-2-Azabicyclo[3.1.0]hex-2-yl)propoxy]-benzamide hydrochloride] | 2400 nM | 
CC(=O)Nc1ccc(OCCCN2CC[C@H]3C[C@H]32)cc1 (racemic) [Example 3, N-(4-{3-(cis-2-azabicyclo[3.1.0]hex-2-yl)propoxy}phenyl)acetamide hydrochloride] | 750 nM | 
CN(C)C(=O)c1ccc(OCCCN2CC[C@H]3C[C@H]32)cc1 (racemic) [Example 5, 4-{3-(cis-2-Azabicyclo[3.1.0]hex-2-yl)propoxy}-N,N-dimethylbenzamide hydrochloride] | 180 nM | 
COCC(=O)Nc1ccc(OCCCN2CC[C@H]3C[C@H]32)cc1 (racemic) [Example 9, N-(4-{3-(cis-2-azabicyclo[3.1.0]hex-2-yl)propoxy}phenyl)-2-methoxy-acetamide hydrochloride] | 390 nM | 
CC(=O)Nc1ccc(OCCCN2CC[C@H]3C[C@H]32)cc1 (relative stereo) [Example 3, N-(4-{3-(cis-2-azabicyclo[3.1.0]hex-2-yl)propoxy}phenyl)acetamide hydrochloride] |  | +272%
CC(=O)Nc1ccc(OCCN2CC[C@H]3C[C@H]32)cc1.Cl (relative stereo) [Example 4, N-(4-{2-(cis-2-azabicyclo[3.1.0]hex-2-yl)ethoxy}phenyl)acetamide hydrochloride] |  | +221%
CCN(CC)C(=O)c1ccc(OCCCN2CC[C@H]3C[C@H]32)cc1.Cl (relative stereo) [Example 6, 4-{3-(cis-2-Azabicyclo[3.1.0]hex-2-yl)propoxy}-N,N-diethylbenzamide hydrochloride] |  | +225%
CNC(=O)c1ccc(OCCCN2CC[C@H]3C[C@H]32)cc1.Cl (relative stereo) [Example 7, 4-{3-(cis-2-Azabicyclo[3.1.0]hex-2-yl)propoxy}-N-methylbenzamide hydrochloride] |  | +377%
CC(=O)N(C)c1ccc(OCCCN2CC[C@H]3C[C@H]32)cc1.Cl (relative stereo) [Example 8, N-(4-{3-(cis-2-azabicyclo[3.1.0]hex-2-yl)propoxy}phenyl)-N-methyl-acetamide hydrochloride] |  | +276%
COCC(=O)Nc1ccc(OCCCN2CC[C@H]3C[C@H]32)cc1 (relative stereo) [Example 9, N-(4-{3-(cis-2-azabicyclo[3.1.0]hex-2-yl)propoxy}phenyl)-2-methoxy-acetamide hydrochloride] |  | +250%

— patent US20120283245A1, “AZABICYCLO[3.1.0]HEX-2-YL COMPOUNDS, A PROCESS FOR THEIR PREPARATION AND PHARMACEUTICAL COMPOSITIONS CONTAINING THEM” (LES LABORATOIRES SERVIER, priority 2009, published 2012)
